Measurements taken from patent publication US5763245A, “Method of controlling insects” (priority 1996, dated 1998).

Experiments:
[1] = tested on: boll weevil larvae; assay: Boll weevil larvae bioassay (diet incorporation); assay type: in vivo; conditions: for lethal effects against boll weevil: incorporated at up to 200 &M in the standard diet
Description: Assays for activity against boll weevil larvae are carried out by incorporating the test sample into a agar liquid diet similar to that for southern corn rootworm [Marrone et al., 1985]. The test sample is substituted for the 20% water component. Neonate larvae are allowed to feed on the diet and mortality and growth stunting are evaluated.
Protein concentrations were determined spectrophotometrically with BCA protein reagent [Smith et al., 1985].

[2] = tested on: black cutworm (BCW) neonate; assay: Detached leaf assay with transgenic corn; assay type: in vivo, Agrotis ipsilon; conditions: corn leaf tissue, 3d
Text: A detached leaf assay was designed to evaluate biological activity of transgenic corn expressing either CryIA(b) alone or in combination with cholesterol oxidase (CO) against Agrotis ipsilon, black cutworm (BCW). In artificial diet assays, a synergistic response was observed when CO and CryIA(b) were combined.
Treatments included transgenic corn expressing either CryIA(b) alone or in combination with CO. Plant tissue from the F1 generation of two CO events crossed to a CryIA(b) event was used in this bioassay. The CO events included collosian and flushed. The CryIA(b) event was ezra. For each of the CO events by CryIA(b) cross, the CO isopopulations provide the tissue for each treatment.
CO expression was estimated to be 15 and 14 ppm for collosian and flushed, respectively. CryIA(b) expression was not quantitated. Historically, this event has reliably and consistently expressed the CryIA(b) protein at around 10 ppm.
Tissue was collected at the v6 stage from the youngest leaf of six plants for each treatment event combination. Four leaf samples (1.5×2.0 cm leaf pieces) were taken from each plant, where each piece was placed singly in a well of a 24-well microtiter plate. One neonate larva was added to each well and sealed with a mylar lidding. The assay was incubated for 3 days at 27° C. Larval weight (mg) and mortality was recorded. […] Although larval weight was less in the CryIA(b)+CO treatment for both events as compared to CryIA(b) alone (ca. 12%), the difference between the treatment means within an event was not significant.

[3] = tested on: fall armyworn (FAW) neonate larvae; assay: B.t. / cholesterol oxidase synergy diet assay; assay type: in vivo; conditions: 7-day; each protein 15 ppm, alone or in tandem
Description: (§1) Feeding assays were conducted for 7-10 days.

[4] = tested on: H. zea neonate larvae; assay: B.t. / cholesterol oxidase synergy diet assay; assay type: in vivo, Helicoverpa zea; design: surv.: unit not given here; conditions: CO 15 ppm, alone or in tandem; for Mean Larval wgt / Stunting Observed: 7-day
Description: as §1

[5] = tested on: black cutworm (BCW) larvae; assay: B.t. / cholesterol oxidase synergy diet assay; assay type: in vivo, Agrotis ipsilon; conditions: each protein 15 ppm, alone or in tandem
[6] = tested on: beet armyworm (BAW) neonate larvae; assay: B.t. / cholesterol oxidase synergy diet assay; assay type: in vivo; conditions: each protein 15 ppm, alone or in tandem; for Mean Larval wgt / Stunting Observed: 7-day
Description: as §1

[7] = tested on: Tobacco budworm (TBW) neonate larvae; assay: B.t. / cholesterol oxidase synergy diet assay; assay type: in vivo; conditions: 7-day; for surv.: n 96
Description: as §1

[8] = tested on: midguts of boll weevil larvae; assay: Midgut morphology of larvae feeding on enzyme diets; assay type: in vivo
Text: The enzymatic action in the gut is believed to be oxidation of the 3-hydroxysteroid(s) of the cell membranes in the lining of the gut. The effects of ingested 3-hydroxysteroid oxidase on the midguts of boll weevil larvae have been studied. The midguts of boll weevil larvae (neonate and second instar at initiation of assay) feeding on diets containing sublethal doses of 3-hydroxysteroid oxidase were dissected out. Representative midguts were immediately placed in fixative and analyzed microscopically for morphological changes. […] There was a good correlation of the morphological changes with the observed mortality over the 3-hydroxysteroid oxidase concentration range in the diet. Parallel midguts were dissected and homogenized and found to contain active 3-hydroxysteroid oxidase in enzymatic assays.

[9] = tested on: boll weevil or lepidopteran larvae; assay: Feeding of diet incubated with enzyme and then boiled; assay type: in vivo; conditions: diet incubated one week with the enzyme, then boiled
Text: While not being bound by this theory, it is believed that the 3-hydroxysteroid oxidase enzyme kills or stunts boll weevil larvae and stunts the growth of lepidopteran larvae by some action in the gut after ingestion.

[10] = tested on: tobacco budworm larvae; assay: Cottonseed diet (Pharmamedia flour) test with tobacco budworm; assay type: in vivo; conditions: 100 ppm in cottonseed diet (Pharmamedia flour)
Description: The Southern corn rootworm diet used in the assay described above was the control. Two treatment diets were made by mixing 30 g of one of two types of cottonseed flour into 170 mL of a 1.6% agar solution at 50% C, containing 0.13% propionic acid, 0.014% phosphoric acid, and 30 mg each of streptomycin sulfate and chlortetracycline. Before mixing, 10% KOH was used to adjust the pH to 6.2. One test diet utilized raw cottonseed flour (Sigma) as the nutrient source; the other utilized Pharmamedia™ (Traders Protein), a flour made up of cottonseed embryos. The diets were incubated in a water bath at 40% C. Dilutions of the Sigma Streptomyces 3-hydroxysteroid oxidase (cholesterol oxidase) were incorporated into the diets as described above. Boll weevil larvae were allowed to feed and mortality rates were determined after six days.
In addition, tobacco budworm larvae are 68% stunted when exposed to 3-hydroxysteroid oxidase (100 ppm) in cottonseed diet (made with Pharmamedia™ flour).

[11] = tested on: boll weevil larvae; assay: Homogenized cotton leaf tissue assay; assay type: in vivo; conditions: six days, initial 24
Description: In order to test 3-hydroxysteroid oxidase against boll weevil larvae in a host tissue diet environment, a study was conducted in which cotton leaf tissue was the only nutritional component of an agar-based diet. Two cotton leaves (each approx. 5 inches wide ) with stems were homogenized at 50% C into 170 mL of a 1.6% agar solution containing 0.13% propionic acid, 0.014% phosphoric acid, and 30 mg each of streptomycin sulfate and chlortetracycline. Before addition of the leaves, 10% KOH was used to adjust the pH of the agar solution to 6.2. The leaf "diet" was allowed to cool to 40% C. Dilutions of cholesterol oxidase and a water control were incorporated into the leaf "diet", poured into insect diet trays and allowed to cool. Boll weevil eggs were added to the diet wells. The assay was evaluated six days later. […] This illustrates that the enzyme is insecticidal in the presence of intact cotton tissue and cells.

[12] = CO 15 ppm, CryIA(c) 0.1 ppm, alone or in tandem
[13] = CryIA(c) 0.05 ppm, alone or with CO 15 ppm

Molecule: CC(C)CCC[C@@H](C)[C@H]1CC[C@H]2[C@@H]3CCC4=CC(=O)CC[C@]4(C)[C@H]3CC[C@]12C [cholestenone, reference compound]
- lethal effects against boll weevil [1]: Nor do cholestenone or hydrogen peroxide, the products of enzymatic action on cholesterol, exhibit any lethal effects

Molecule: OO [hydrogen peroxide, reference compound]
- lethal effects against boll weevil [1]: Nor do cholestenone or hydrogen peroxide, the products of enzymatic action on cholesterol, exhibit any lethal effects

Molecule: CryIA(b): Bacillus thuringiensis crystal protein, purified; in Table 24 expressed in transgenic corn event ezra
- Mean Larval Weight ([2]; event collosian x ezra): 1.11 mg
- Mort. ([2]; event collosian x ezra): 7%
- Mean Larval Weight ([2]; event flushed x ezra): 1.27 mg
- Mort. ([2]; event flushed x ezra): 8%
- Mean Larval wgt [3]: 0.25 ± 0.05 mg
- Obs. Mort. [3]: 10%
- Stunting Observed [3]: 99%
- surv. [3]: 80
- Mean Larval wgt ([4]; CryIA(b) 10 ppm): 0.96 mg
- Stunting Observed ([4]; CryIA(b) 10 ppm): 97%
- Obs. Mort. ([4]; 7 day, CryIA(b) 10 ppm): 4.3%
- surv. ([4]; 7 day, CryIA(b) 10 ppm): 90
- Obs. Mort. ([4]; 8 day, CryIA(b) 10 ppm): 10%
- surv. ([4]; 8 day, CryIA(b) 10 ppm): 69
- Obs. Mort. ([5]; 3rd instar 6 day): 0%
- surv. ([5]; 3rd instar 6 day): 32
- Mean Larval wgt ([5]; 3rd instar, 6-day assay): 216 mg
- Stunting Observed ([5]; 3rd instar, 6-day assay): 15%
- Obs. Mort. ([5]; Neonate 6 day): 0%
- surv. ([5]; Neonate 6 day): 91
- Obs. Mort. ([5]; Neonate 7 day): 2%
- surv. ([5]; Neonate 7 day): 76
- Mean Larval wgt ([5]; Neonate, 7-day assay): 13.64 mg
- Stunting Observed ([5]; Neonate, 7-day assay): 7%

Molecule: CryIA(c): Bacillus thuringiensis crystal protein, purified
- Mean Larval wgt [6]: 6.15 ± 0.90 mg
- Stunting Observed [6]: 88%
- Obs. Mort. ([6]; 7 day): 2%
- surv. ([6]; 7 day): 94
- Obs. Mort. ([6]; 8 day): 3%
- surv. ([6]; 8 day): 70
- Obs. Mort. [7, 12]: 38%
- surv. [7, 12]: 56
- Obs. Mort. [7, 13]: 23%
- surv. [7, 13]: 70
- Obs. Mort. ([4]; 7 day, CryIA(c) 15 ppm): 11%
- surv. ([4]; 7 day, CryIA(c) 15 ppm): 82
- Obs. Mort. ([4]; 10 day, CryIA(c) 15 ppm): 11%
- surv. ([4]; 10 day, CryIA(c) 15 ppm): 82

Molecule: catalase [reference compound]
- effect of added catalase on lethal effects of 3-hydroxysteroid oxidase on boll weevil ([1]; catalase added to 3-hydroxysteroid oxidase in the bioassay): does not block the lethal effects

Molecule: cholesterol oxidase
- Mean Larval wgt [3]: 42.97 ± 1.77 mg
- Obs. Mort. [3]: 2%
- Stunting Observed [3]: 0%
- surv. [3]: 90
- Mean Larval wgt [6]: 27.51 ± 5.52 mg
- Stunting Observed [6]: 47%
- Obs. Mort. ([6]; 7 day): 1%
- surv. ([6]; 7 day): 94
- Obs. Mort. ([6]; 8 day): 3%
- surv. ([6]; 8 day): 77
- Obs. Mort. [7, 12]: 1%
- surv. [7, 12]: 90
- midgut morphological changes ([8]; higher doses): complete lysis of the cells
- midgut morphological changes ([8]; larvae ingesting low doses): Disruption of the epithelial cell layer
- lethal or stunting effects [9]: no lethal or stunting effects
- stunted [10]: 68%
- Bollweevils Survivors ([11]; 10 ppm in cotton leaf diet): 20
- Bollweevils Survivors ([11]; 50 ppm in cotton leaf diet): 12
- Bollweevils Survivors ([11]; 100 ppm in cotton leaf diet): 0
- Mean Larval wgt ([4]; CryIA(b) 10 ppm): 24.95 mg
- Stunting Observed ([4]; CryIA(b) 10 ppm): 27%
- Obs. Mort. ([4]; 7 day, CryIA(b) 10 ppm): 0%
- surv. ([4]; 7 day, CryIA(b) 10 ppm): 95
- Obs. Mort. ([4]; 7 day, CryIA(c) 15 ppm): 0%
- surv. ([4]; 7 day, CryIA(c) 15 ppm): 96
- Obs. Mort. ([4]; 8 day, CryIA(b) 10 ppm): 1%
- surv. ([4]; 8 day, CryIA(b) 10 ppm): 87
- Obs. Mort. ([4]; 10 day, CryIA(c) 15 ppm): 0%
- surv. ([4]; 10 day, CryIA(c) 15 ppm): 96
- Obs. Mort. ([5]; 3rd instar 6 day): 0%
- surv. ([5]; 3rd instar 6 day): 32
- Mean Larval wgt ([5]; 3rd instar, 6-day assay): 197 mg
- Stunting Observed ([5]; 3rd instar, 6-day assay): 22%
- Obs. Mort. ([5]; Neonate 6 day): 2%
- surv. ([5]; Neonate 6 day): 81
- Obs. Mort. ([5]; Neonate 7 day): 1%
- surv. ([5]; Neonate 7 day): 61
- Mean Larval wgt ([5]; Neonate, 7-day assay): 9.93 mg
- Stunting Observed ([5]; Neonate, 7-day assay): 32%
